# Assays:
# Assay type in all cases: in vivo
# Impatiens = test: Experiment 5: foliar application of LCO to bedding plants (Impatiens)
# Text: This is a growth room study. Seeds of garden plant species were selected on the basis of seed-purchase popularity (Norseco, Montreal), grown in trays of Pro-Mix (NB. trademarked name) Seeding Medium, and at some size were transplanted into trays of 36 and 32 wells containing the same medium. Growth proceeded under lights in the growth room. Some 2 weeks before expected flowering, 16 young plants were sprayed with each of various levels of LCO leaving control plants untreated. The results are presented in Table 5A on bud formation and where possible opened flowers.
# pepper (cv. Camelot) = test: Experiment 7: foliar application of LCO on pepper
# Procedure: 13 pepper seedlings (cv. Camelot, 6-leaf stage) were transplanted in 2 rows per plot (3.5×2.5M^2). The rows were covered with 65 cm width black plastic mulch one week before transplanting. Fertilizer (10-52-10) solution of 250 ppm was applied into the planting hole through the mulch when transplanting (approx. 250 ml per plant). The drip irrigation system was set to twice a week and 4 hours each time, depending on the soil moisture. Plants were sprayed with LCO 14 days after transplanting (5 ml/plant) and 27 days after transplanting (50 ml/plant).
# [1] = test system: greenhouse-grown tomato plants; test: Experiments 1 and 2: effect of LCO on tomato flowering; conditions: for difference in flowering between LCO treated plants and control: Experiment 2
# Procedure: Two experiments were performed to investigate effect of LCO on plant's flowering using greenhouse-grown tomato plants.
# sweet corn = test: Experiment 8: foliar application of LCO on sweet corn
# Text: Fertilizer (36-12-18) was applied to the corn field at 500 kg/ha before seeding. A machine planter was employed to sow sweet corn grain. Plot size was 4×4.5=18 M^2, and 6 rows/plot. To protect corn ears from raccoons and other animal damage, sweet corn plants were protected with an electric fence around the plots after silking. LCO was applied once 40 days after sowing or/and twice, 40 days after sowing and 58 days after sowing at a rate of 200 L/ha for the first application and 300 L/ha for the second application. Corn was harvested 80 days after sowing, from the two middle rows and corn ears reaching 12 cm or longer were counted as marketable.
# [2] = test system: Red tomato (cv. Mountain Spring); test: Experiment 15: LCO application on early fruit number and yield, field tomato
# Procedure: Red tomato seedlings (cv. Mountain Spring) were transplanted at their 4-leaf stage. 7 plants in one row were transplanted in each plot of 3.5×2.5M2. The row was covered with 65 cm width black plastic mulch, one week before transplanting. Fertilizer (10-52-10) solution of 250 pprn was applied into the planting hole through the mulch when transplanting (approx. 250 ml/plant). the drip irrigation system was set to twice a week and 4 hours each time, depending on the soil moisture. Plants were sprayed with LCO 15 days after transplant (5 ml/plant) and 29 days after transplant (20 ml/plant). Fruits were first harvested 67 days after transplant.
# grain corn (cv. DK376) = test: Experiment 9: effect of LCO on grain corn yield
# Text: Fertilizer (36-12-18) was applied to the corn field at a rate of 500 kg/ha before seeding. A machine planter was employed to plant the grain (cv. DK376, HU2650, Fludioxnil coated). To protect corn ears from bird damage, grain corn ears in the middle two rows were covered with plastic nets after silking. LCO was applied to corn plants at a rate of 200 L/ha for the first application 40 days after planting and at 400 L/ha for the second application 58 days after planting. The two protected middle rows of plants were harvested by a combine 152 days after planting. […] The total grain yield increased for all but the 10^−8M double application.
substance,measurement,setting,value
Lipo-chitooligosaccharides [LCO],Total Number of Impatiens buds,Impatiens; 20 ml/16 plants of 10^−7M LCO,71
same,Total Number of Impatiens buds,Impatiens; 20 ml/16 plants of 10^−8M LCO,65
same,Total Number of Impatiens buds,Impatiens; 20 ml/16 plants of 10^−9M LCO,85
same,Total Number of Impatiens buds,Impatiens; 50 ml/16 plants of 3 × 10^−8M LCO,66
same,"First 4 wk yield, Fruit/plant",pepper (cv. Camelot); 14 ng/plant,5.79ab Fruit/plant
same,"First 4 wk yield, gram/plant",pepper (cv. Camelot); 14 ng/plant,784.91ab gram/plant
same,"First 4 wk yield, Fruit/plant",pepper (cv. Camelot); 50 ng/plant,5.83ab Fruit/plant
same,"First 4 wk yield, gram/plant",pepper (cv. Camelot); 50 ng/plant,833.79ab gram/plant
same,"First 4 wk yield, Fruit/plant",pepper (cv. Camelot); 75 ng/plant,5.77ab Fruit/plant
same,"First 4 wk yield, gram/plant",pepper (cv. Camelot); 75 ng/plant,835.26ab gram/plant
same,"First 4 wk yield, Fruit/plant",pepper (cv. Camelot); 100 ng/plant,4.87b Fruit/plant
same,"First 4 wk yield, gram/plant",pepper (cv. Camelot); 100 ng/plant,694.48b gram/plant
same,"First 4 wk yield, Fruit/plant",pepper (cv. Camelot); 141 ng/plant,6.48a Fruit/plant
same,"First 4 wk yield, gram/plant",pepper (cv. Camelot); 141 ng/plant,934.83a gram/plant
same,"First 4 wk yield, Fruit/plant",pepper (cv. Camelot); 282 ng/plant,5.02ab Fruit/plant
same,"First 4 wk yield, gram/plant",pepper (cv. Camelot); 282 ng/plant,702.87b gram/plant
same,best dose,pepper (cv. Camelot); 5 ml of 2×10^−8M,141 ng/plant
same,increase of fruit number in the early stages,pepper (cv. Camelot); foliar application,approximately 1 fruit per plant
same,LCO treated plants flowered 3 days earlier than control,[1]; Experiment 1,over 80%
same,shift in time of flowering,[1]; Experiment 1,3 days
same,more plants flowering as compared to control,"[1]; Experiment 1, day 4 of assessment",35%
same,more plants flowering as compared to control,"[1]; Experiment 1, day I of assessment",25%
same,difference in flowering between LCO treated plants and control,[1]; day 3 of assessment,20%
same,difference in flowering between LCO treated plants and control,[1]; initially,10%
same,Average Length (cm)/ear,sweet corn; 10^−7M once,13.12 c cm
same,Ear No/plant,sweet corn; 10^−7M once,0.934
same,Ear Weight (kg)/ha,sweet corn; 10^−7M once,4383.3 kg/ha
same,Ear/ha,sweet corn; 10^−7M once,65416.7 ab /ha
same,Marketable ears/ha,sweet corn; 10^−7M once,25000.0 /ha
same,Average Length (cm)/ear,sweet corn; 10^−7M twice,13.81 ab cm
same,Ear No/plant,sweet corn; 10^−7M twice,0.935
same,Ear Weight (kg)/ha,sweet corn; 10^−7M twice,5000.0 kg/ha
same,Ear/ha,sweet corn; 10^−7M twice,70833.3 a /ha
same,Marketable ears/ha,sweet corn; 10^−7M twice,30416.7 /ha
same,Average Length (cm)/ear,sweet corn; 10^−8M once,13.24 bc cm
same,Ear No/plant,sweet corn; 10^−8M once,0.905
same,Ear Weight (kg)/ha,sweet corn; 10^−8M once,4800.0 kg/ha
same,Ear/ha,sweet corn; 10^−8M once,67083.3 ab /ha
same,Marketable ears/ha,sweet corn; 10^−8M once,26250.0 /ha
same,Average Length (cm)/ear,sweet corn; 10^−8M twice,13.64 abc cm
same,Ear No/plant,sweet corn; 10^−8M twice,0.856
same,Ear Weight (kg)/ha,sweet corn; 10^−8M twice,5150.0 kg/ha
same,Ear/ha,sweet corn; 10^−8M twice,62083.3 ab /ha
same,Marketable ears/ha,sweet corn; 10^−8M twice,30000.0 /ha
same,Average Length (cm)/ear,sweet corn; 10^−9M once,13.68 abc cm
same,Ear No/plant,sweet corn; 10^−9M once,0.928
same,Ear Weight (kg)/ha,sweet corn; 10^−9M once,4266.7 kg/ha
same,Ear/ha,sweet corn; 10^−9M once,68333.3 a /ha
same,Marketable ears/ha,sweet corn; 10^−9M once,29166.7 /ha
same,Average Length (cm)/ear,sweet corn; 10^−9M twice,13.43 bc cm
same,Ear No/plant,sweet corn; 10^−9M twice,0.886
same,Ear Weight (kg)/ha,sweet corn; 10^−9M twice,4033.3 kg/ha
same,Ear/ha,sweet corn; 10^−9M twice,56666.7 bc /ha
same,Marketable ears/ha,sweet corn; 10^−9M twice,25000.0 /ha
same,total number of sweet corn ears,sweet corn; foliar application in the range of 10^−8-10^−7M,significantly increased
same,optimal application,[2]; early fruit number and weight,75 ng/plant
same,early fruit number and weight,[2]; foliar spray 15 and 29 days after transplant,significantly increased
same,Dry Yield (kg/2 rows),grain corn (cv. DK376); 10^−7M once,3.44 kg/2 rows
same,Dry yield (kg/ha),grain corn (cv. DK376); 10^−7M once,5730.6 kg/ha
same,Ears/2 rows,grain corn (cv. DK376); 10^−7M once,37.25ab
same,Fresh Yield (kg/2 rows),grain corn (cv. DK376); 10^−7M once,4.40 kg/2 rows
same,Fresh Yield (kg/ha),grain corn (cv. DK376); 10^−7M once,7333.3 kg/ha
same,Dry Yield (kg/2 rows),grain corn (cv. DK376); 10^−7M twice,3.96 kg/2 rows
same,Dry yield (kg/ha),grain corn (cv. DK376); 10^−7M twice,6606.5 kg/ha
same,Ears/2 rows,grain corn (cv. DK376); 10^−7M twice,40.00a
same,Fresh Yield (kg/2 rows),grain corn (cv. DK376); 10^−7M twice,5.03 kg/2 rows
same,Fresh Yield (kg/ha),grain corn (cv. DK376); 10^−7M twice,8383.3 kg/ha
same,Dry Yield (kg/2 rows),grain corn (cv. DK376); 10^−8M once,3.62 kg/2 rows
same,Dry yield (kg/ha),grain corn (cv. DK376); 10^−8M once,6040.4 kg/ha
same,Ears/2 rows,grain corn (cv. DK376); 10^−8M once,37.00ab
same,Fresh Yield (kg/2 rows),grain corn (cv. DK376); 10^−8M once,4.57 kg/2 rows
same,Fresh Yield (kg/ha),grain corn (cv. DK376); 10^−8M once,7616.7 kg/ha
same,Dry Yield (kg/2 rows),grain corn (cv. DK376); 10^−8M twice,3.23 kg/2 rows
same,Dry yield (kg/ha),grain corn (cv. DK376); 10^−8M twice,5387.1 kg/ha
same,Ears/2 rows,grain corn (cv. DK376); 10^−8M twice,32.25bc
same,Fresh Yield (kg/2 rows),grain corn (cv. DK376); 10^−8M twice,4.12 kg/2 rows
same,Fresh Yield (kg/ha),grain corn (cv. DK376); 10^−8M twice,6866.7 kg/ha
same,Dry Yield (kg/2 rows),grain corn (cv. DK376); 10^−9M once,3.77 kg/2 rows
same,Dry yield (kg/ha),grain corn (cv. DK376); 10^−9M once,6275.6 kg/ha
same,Ears/2 rows,grain corn (cv. DK376); 10^−9M once,39.00ab
same,Fresh Yield (kg/2 rows),grain corn (cv. DK376); 10^−9M once,4.75 kg/2 rows
same,Fresh Yield (kg/ha),grain corn (cv. DK376); 10^−9M once,7916.7 kg/ha
same,Dry Yield (kg/2 rows),grain corn (cv. DK376); 10^−9M twice,3.57 kg/2 rows
same,Dry yield (kg/ha),grain corn (cv. DK376); 10^−9M twice,5953.5 kg/ha
same,Ears/2 rows,grain corn (cv. DK376); 10^−9M twice,37.25ab
same,Fresh Yield (kg/2 rows),grain corn (cv. DK376); 10^−9M twice,4.55 kg/2 rows
same,Fresh Yield (kg/ha),grain corn (cv. DK376); 10^−9M twice,7583.3 kg/ha
same,Ear number over untreated control,grain corn (cv. DK376); all treatments except the 10^−8M double application,significantly increased
